# Results published in PMC8379256, “A xanthene derivative, DS20060511, attenuates glucose intolerance by inducing skeletal muscle-specific GLUT4 translocation in mice” (Communications Biology, 2021).
# Values joined by “and” are separate entries in the source; they are usually repeats but may differ in a detail not shown here. Equal entries are not always repeated. Where two headings read alike, the source gives them in different places.
# Tests used:
# Format in all cases: in vivo, mouse
# [1] = Pharmacokinetics: plasma concentration after oral administration; details: for concentration at 0.5 hr / concentration at 1.25 hr / concentration at 2 hr / concentration at 4 hr / concentration at 6 hr: plasma, individual mice; for concentration at 0.5 hr: read-out: Conc. (µM) 0.5 hr; for concentration at 1.25 hr: read-out: Conc. (µM) 1.25 hr; for concentration at 2 hr: read-out: Conc. (µM) 2 hr; for concentration at 4 hr: read-out: Conc. (µM) 4 hr; for concentration at 6 hr: read-out: Conc. (µM) 6 hr; for maximal plasma concentration: at 30 min
# Protocol: C57BL/6 mice that had been denied access to food overnight received the indicated oral dose of DS20060511, and blood samples were collected from the tail vein at the indicated timepoints. Plasma samples for quantitation of DS20060511 were prepared by centrifugation. Another group of mice received oral administration DS20060511 (30 mg kg^−1) and euthanized 75 min later. The soleus and gastrocnemius muscles, heart, and inguinal WAT were removed and homogenized in water (5 vol.) for quantitation of the drug concentrations. Plasma samples and tissue homogenates were analyzed by LC-MS/MS (Nexera MP System, SHIMADZU, Kyoto, Japan; API4000 System, SCIEX, Framingham, MA). The tissue concentrations of the compound were calculated by assuming the volume of 1 g of tissue is 1 mL. Evaluation of the metabolic stability of the compound to mouse and human cytochrome P450 (CYP) was conducted as follows. The test compound (1 μM) was incubated with pooled liver microsomes (0.1 mg mL^−1) in sodium phosphate buffer (100 mM, pH 7.4) at 37 °C with an NADPH generating system: β-nicotinamide adenine dinucleotide phosphate (β-NADP) 1 mM, D-glucose 6-phosphate (G-6-P) 10 mM, glucose 6-phosphate dehydrogenase (G-6-PDH) 1 U mL^−1, and magnesium chloride 3.3 mM. After 30 min incubation, the reaction was terminated by addition of acetonitrile and samples were analyzed by LC-MS/MS. The results were expressed as the amount of compound remaining (expressed as a percentage), based on the ratio of the relative area to that in the control (without reaction).
# [2] = test system: WT and eNOSKO mice; assay: Oral GTT in wild-type and eNOS-knockout mice; details: for Blood glucose: Glucose tolerance test, Wildtype, 10 mg/kg, individual animals
# Protocol: Fig. 7 DS20060511 treatment decreases blood glucose levels in both WT and eNOSKO mice during oral GTT and ITT. a, b Blood glucose levels during oral GTT in wild-type (WT, n = 5) and eNOS-knockout (KO, n = 5–6) mice. Mice received vehicle or DS20060511 (10 mg kg^−1) orally 15 min before the glucose administration (3.0 g kg^−1). c, d Blood glucose levels during ITT in WT (n = 4) and KO (n = 5) mice. Vehicle or DS20060511 (30 mg kg^−1) was given orally at the same time as 0.5 U kg^−1 insulin injection intraperitoneally. Values shown are means ± SEM. *P < 0.05, **P < 0.01, ***P < 0.001 vs. vehicle by the t-test.
# C57BL/6 and db/db mice were purchased from CLEA Japan, Tokyo, Japan. GLUT4- knockout mice were generated at RIKEN BioResource Center, Tsukuba, Japan, according to a previously described method. eNOS-knockout mice were kindly provided by Dr. Masato Tsutsui[41],[42]. The mice were group-housed under controlled illumination (12:12 h light-dark cycle) and temperature (23 ± 2 °C) conditions and given free access to normal chow and water, unless otherwise specified. The HFD-fed obese mice were prepared by feeding C57BL/6 mice a HFD for at least 8 weeks from 6 weeks of age. […] Male mice were used for all the experiments in this study. The animal care and experimental procedures used in the study were approved by The University of Tokyo Animal Care Committee (Approval number: 27-3), and the study was carried out in accordance with the Animal Experimentation Guidelines of Daiichi Sankyo Co., Ltd (Approved number: 20000411).
# Mice that had been denied access to food overnight received the indicated oral dose of DS20060511 or vehicle 15 min prior to the glucose load (1.5 g kg^−1, except for eNOS-knockout mice, which received 3.0 g kg^−1). Then, after the oral glucose load, the blood glucose levels were measured using Glutest Every in samples obtained from the tail vein at the indicated timepoints. Plasma insulin concentrations were also measured with an ELISA kit (Morinaga Institute of Biological Science, Yokohama, Japan) in blood samples collected from the tail vein at the indicated timepoints.
# [3] = test system: C57BL/6 mice; assay: Indirect calorimetry under the oral glucose tolerance test; details: oral GTT; 30 mg/kg po; 1 h after glucose load
# Text: In the revised manuscript, we have added references
# 154–156. We think that the reference, PMID: 23349504, is not suitable for this context, because this […]
# What is the faith of the glucose in response to DS20060511? Is it oxidized or stored as glycogen? Does it produce excessive oxidative stress? Please include such important measures.
# Response: Thank you for your question. We agree that such information is important. In the revised manuscript, we have added data on the glycogen contents of the skeletal muscle, heart, and liver after 28 days of DS20060511 treatment in db/db mice, in Supplementary Fig. 5c and lines 241–243, as […]
# liver, or in the glycogen contents of the muscle, heart, and liver (Supplementary Fig. 5b, c).” The […]
# oxidized, and not stored as glycogen. We, however, regret not assessing the level of oxidative stress in the skeletal muscles of the db/db mice. To determine whether DS20060511 treatment might produce excessive oxidative stress, the data of indirect calorimetry under GTT in B6 mice may be […]
# produce excessive oxidative stress, at least at the whole-body level in the normal state.
# Indirect calorimetry under the oral glucose tolerance test. C57BL/6 mice (n = 6) that had been denied access to food overnight received oral administration of 30 […]
# glucose load (1.5 g kg-1). Indirect calorimetry was performed for 1 h after the glucose load. […]
# [4] = C57BL/6, mouse, po, 1 mg/kg, 1 mg/kg oral
# [5] = C57BL/6, mouse, po, 30 mg/kg, 30 mg/kg oral
structure (smiles),measurement,setting,value
COc1ccc2c(C)c(C(=O)O)ccc2c1C1C2=C(CC(C)(C)CC2=O)OC2=C1C(=O)CC(C)(C)C2 [DS20060511],concentration at 0.5 hr,[1]; [4],0.6 µM
same,concentration at 1.25 hr,[1]; [4],0.23 µM
same,concentration at 2 hr,[1]; [4],0 µM
same,concentration at 4 hr,[1]; [4],0 µM
same,concentration at 6 hr,[1]; [4],0 µM
same,concentration at 4 hr,"[1]; C57BL/6, mouse, po, 10 mg/kg, 10 mg/kg oral",1.2 µM
same,concentration at 0.5 hr,[1]; [5],77.7 µM
same,concentration at 1.25 hr,[1]; [5],49.6 µM
same,concentration at 2 hr,[1]; [5],35 µM
same,maximal plasma concentration,"[1]; oral 1 mg kg−1, normal mice",0.6 µM
same,maximal plasma concentration,[1]; oral 10 mg kg−1,16.5 µM
same,maximal plasma concentration,[1]; oral 30 mg kg−1,71.4 µM
same,concentration at 0.5 hr,"[1]; 1 mg/kg oral, 1 mg/kg",0.5 µM and 0.44 µM and 0.65 µM
same,concentration at 1.25 hr,"[1]; 1 mg/kg oral, 1 mg/kg",0.268 µM and 0.4 µM and 0.221 µM
same,concentration at 0.5 hr,"[1]; 10 mg/kg oral, 10 mg/kg",17.9 µM and 8.3 µM and 19.0 µM and 20.9 µM
same,concentration at 1.25 hr,"[1]; 10 mg/kg oral, 10 mg/kg",3.9 µM and 5.3 µM and 9.9 µM and 11.4 µM
same,concentration at 2 hr,"[1]; 10 mg/kg oral, 10 mg/kg",7.0 µM and 2.1 µM and 5.0 µM and 6.6 µM
same,concentration at 4 hr,"[1]; 10 mg/kg oral, 10 mg/kg",0.6 µM and 0.8 µM and 0.7 µM
same,concentration at 6 hr,"[1]; 10 mg/kg oral, 10 mg/kg",0.285 µM and 0.0 µM and 0.323 µM
same,concentration at 0.5 hr,"[1]; 30 mg/kg oral, 30 mg/kg",74.9 µM and 69.3 µM and 63.8 µM
same,concentration at 1.25 hr,"[1]; 30 mg/kg oral, 30 mg/kg",41.0 µM and 53.8 µM
same,concentration at 2 hr,"[1]; 30 mg/kg oral, 30 mg/kg",28.7 µM and 34.5 µM and 44.1 µM
same,concentration at 4 hr,"[1]; 30 mg/kg oral, 30 mg/kg",6.7 µM and 5.3 µM and 8.2 µM and 10.7 µM
same,concentration at 6 hr,"[1]; 30 mg/kg oral, 30 mg/kg",1.9 µM and 1.8 µM and 1.0 µM and 3.0 µM
same,Blood glucose,[2]; 0 min,96 mg/dL and 111 mg/dL and 104 mg/dL and 93 mg/dL and 82 mg/dL
same,Blood glucose,[2]; 15 min,260 mg/dL and 212 mg/dL and 232 mg/dL and 229 mg/dL and 231 mg/dL and 181 mg/dL
same,Blood glucose,[2]; 30 min,253 mg/dL and 242 mg/dL and 215 mg/dL and 185 mg/dL and 284 mg/dL and 213 mg/dL
same,Blood glucose,[2]; 60 min,212 mg/dL and 210 mg/dL and 226 mg/dL and 281 mg/dL and 196 mg/dL
same,Blood glucose,[2]; 90 min,159 mg/dL and 172 mg/dL and 132 mg/dL and 150 mg/dL and 218 mg/dL and 154 mg/dL
same,Blood glucose,[2]; 120 min,120 mg/dL and 128 mg/dL and 115 mg/dL and 130 mg/dL and 170 mg/dL and 127 mg/dL
same,Blood glucose,[2]; -15 min,79 mg/dL and 94 mg/dL and 75 mg/dL and 91 mg/dL and 73 mg/dL and 81 mg/dL
same,blood glucose levels during oral GTT (in words),"[2]; WT and eNOSKO mice, 10 mg kg−1 po",significantly decreased blood glucose levels in both the WT and eNOSKO mice
same,VO2,[3],no change in the VO2
